# Source: PubChem BioAssay (NCI)
#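 Method: 48-hour compound exposure of cells in 96-well plates, five concentrations, linear interpolation of endpoints. GI50 is the concentration that inhibits growth by half. The concentration for full growth arrest is given as TGI.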
# Tests used:
# Test in all cases: NCI anticancer screen, dose series, 48 h
# A549 NSCLC = tested on: A549 NSCLC
# CCRF-CEM leukemia = tested on: CCRF-CEM leukemia
# COLO 205 colon = tested on: COLO 205 colon
# HT29 colon = tested on: HT29 colon
# IGROV1 ovarian = tested on: IGROV1 ovarian
# K-562 leukemia = tested on: K-562 leukemia
# MALME-3M melanoma = tested on: MALME-3M melanoma
# NCI-H23 lung = tested on: NCI-H23 lung
# SNB-75 CNS = tested on: SNB-75 CNS
# UACC-62 melanoma = tested on: UACC-62 melanoma
SMILES,GI50 (A549 NSCLC),TGI (A549 NSCLC),GI50 (CCRF-CEM leukemia),TGI (CCRF-CEM leukemia),GI50 (COLO 205 colon),TGI (COLO 205 colon),GI50 (HT29 colon),TGI (HT29 colon),GI50 (IGROV1 ovarian),TGI (IGROV1 ovarian),GI50 (K-562 leukemia),TGI (K-562 leukemia),GI50 (MALME-3M melanoma),TGI (MALME-3M melanoma),GI50 (NCI-H23 lung),TGI (NCI-H23 lung),GI50 (SNB-75 CNS),TGI (SNB-75 CNS),GI50 (UACC-62 melanoma),TGI (UACC-62 melanoma)
COC(=O)c1ccc2c(c1)c1c(C)c3ccncc3c(C)c1n2C,0.484 µM,> 100 µM,0.518 µM,> 100 µM,0.113 µM,> 100 µM,0.133 µM,> 100 µM,0.0801 µM,> 100 µM,0.2 µM,> 100 µM,0.201 µM,11.2 µM,0.304 µM,16.1 µM,0.104 µM,15.9 µM,0.191 µM,2.63 µM
CC1CCc2c(c(CC3CC(=O)NC(=O)C3)nn2-c2ccccc2)C1 (stereo not given),–,> 100 µM,–,> 100 µM,–,> 100 µM,–,> 100 µM,–,> 100 µM,–,> 100 µM,–,> 100 µM,–,> 100 µM,–,> 100 µM,–,> 100 µM
CC1=NN(C(=O)c2ccncc2)C(=O)C1N=Nc1ccc2ccccc2c1 (stereo not given),–,> 100 µM,–,> 100 µM,–,> 100 µM,–,> 100 µM,–,> 100 µM,–,> 70.7 µM,–,> 100 µM,–,> 100 µM,–,> 100 µM,–,> 100 µM
O=C(c1ccccc1)c1c(CC(O)c2ccccc2)n(C(=O)c2ccccc2)c2ccccc12 (stereo not given),–,> 100 µM,–,> 100 µM,–,> 100 µM,–,> 100 µM,–,> 100 µM,–,> 100 µM,–,> 100 µM,–,69.5 µM,–,58.2 µM,–,> 100 µM
COc1ccc(/C=C2\CC(C)CC3C2=NN(c2ccccc2)C3c2ccc(OC)c(OC)c2)cc1OC (stereo not given),5.72 µM,> 100 µM,4.02 µM,> 100 µM,4.67 µM,> 100 µM,3.18 µM,16.1 µM,5.37 µM,> 100 µM,1.85 µM,5.4 µM,8.64 µM,> 100 µM,4.49 µM,27.2 µM,3.4 µM,18.5 µM,4.29 µM,17.3 µM
O=C(Nc1nc(-c2ccc(Cl)cc2)nc2c1sc(=S)n2-c1ccccc1)C(F)(F)F,3.88 µM,18 µM,> 100 µM,> 100 µM,3.54 µM,32.6 µM,3.73 µM,> 100 µM,3.9 µM,14.3 µM,6.37 µM,> 100 µM,2.89 µM,7.08 µM,5.45 µM,26.8 µM,1.68 µM,3.49 µM,3.55 µM,15 µM
COC(=O)C(=O)C(C(=O)C=C(C)C)C(=O)C(=O)Nc1nc2ccc([N+](=O)[O-])cc2s1 (stereo not given),–,> 100 µM,–,> 100 µM,–,> 100 µM,–,> 100 µM,–,66.4 µM,–,> 100 µM,–,> 100 µM,–,> 100 µM,–,63.7 µM,–,> 100 µM
CC(=N)N(C)O,–,> 100 µM,–,53.1 µM,–,33.2 µM,–,> 100 µM,–,> 100 µM,–,> 100 µM,–,> 100 µM,–,> 100 µM,–,> 100 µM,–,> 100 µM
Nc1nc(N)c(N=Nc2ccc(C(=O)O)c(O)c2)c(N)n1,–,> 100 µM,–,> 100 µM,–,> 100 µM,–,> 100 µM,–,> 100 µM,–,> 100 µM,–,> 100 µM,–,> 100 µM,–,> 100 µM,–,> 100 µM
Cc1cc(NNC(=O)c2ccccc2O)nc(Nc2nc3ccccc3o2)n1,1.13 µM,10.3 µM,–,11.8 µM,2.75 µM,15.4 µM,3.31 µM,15.4 µM,1.3 µM,12.2 µM,2.31 µM,> 66.2 µM,2.98 µM,15.5 µM,3.99 µM,37.8 µM,3.49 µM,17.4 µM,0.966 µM,11.4 µM
COc1ccc(NC(=O)CCc2cc(C(C)(C)C)n[nH]2)cc1,–,> 100 µM,–,> 100 µM,–,> 100 µM,–,> 100 µM,–,> 100 µM,–,> 100 µM,–,> 100 µM,–,> 100 µM,–,> 100 µM,–,> 100 µM
Cc1cn2c(/C=C3/C(=O)Nc4ccc(F)cc43)c(C)nc2s1,6.37 µM,> 50 µM,14.8 µM,> 50 µM,1.91 µM,> 50 µM,1.68 µM,14.9 µM,2.14 µM,25 µM,1.72 µM,> 50 µM,7.26 µM,> 50 µM,7.85 µM,> 50 µM,3.76 µM,15.6 µM,3.85 µM,48.3 µM
CC[C@@H](C)Nc1cc(C(=O)NC2CC3CCC(C2)N3c2ccc(C(=O)C3CC3)cn2)c(C)cc1C(N)=O (stereo not given in full),0.0343 µM,> 100 µM,0.0482 µM,> 100 µM,0.0182 µM,11.6 µM,0.0111 µM,15.9 µM,0.0436 µM,> 100 µM,0.0378 µM,> 100 µM,0.0383 µM,> 75.5 µM,0.0589 µM,> 100 µM,0.192 µM,> 100 µM,0.036 µM,12.1 µM
C#CCN(N=O)C(=O)NCCCC(NC(C)=O)C(=O)NCc1ccccc1 (stereo not given),–,> 100 µM,–,70.3 µM,–,> 100 µM,–,> 100 µM,–,> 100 µM,–,> 100 µM,–,> 100 µM,–,> 100 µM,–,> 100 µM,–,> 100 µM
COC(=O)C1=C(C(=O)OC)C2OC1c1cc3ccccc3cc12,–,37 µM,–,> 100 µM,–,3.39 µM,–,20.4 µM,–,9.58 µM,–,–,–,6 µM,–,11.8 µM,–,38.7 µM,–,27.9 µM
O=C(O)CC1CC=C[C@H]2c3cc4c(cc3C(=O)NC12)OCO4 (stereo not given in full),–,> 75 µM,–,> 75 µM,–,> 75 µM,–,–,–,> 75 µM,–,> 75 µM,–,> 75 µM,–,> 75 µM,–,> 75 µM,–,> 75 µM
CN(O)C(=S)c1ccccc1,–,> 100 µM,–,4.99 µM,–,1.75 µM,–,–,–,56.3 µM,–,> 100 µM,–,> 100 µM,–,19.8 µM,–,> 100 µM,–,6.21 µM
CC(=O)O/N=C(Cl)/C(Cl)=N/OC(C)=O,–,> 100 µM,–,> 100 µM,–,–,–,> 100 µM,–,> 100 µM,–,> 100 µM,–,> 100 µM,–,> 100 µM,–,> 100 µM,–,> 100 µM
